Assay: Experimental stability/excipient compatibility study of prototype formulation
Format: physicochemical
Details: with Vitamin E polyethylene glycol succinate and gelatin capsule shell; 25° C./60% RH and 40° C./75% RH over a 1-month period
Excerpt: A homogeneous solution of Compound I is formed with the Vitamin E polyethylene glycol succinate (TPGS), which enables good uniformity of content to be achieved at low strengths.

Degradation of Compound I in prototype formulation: No significant degradation
SMILES: Cc1c(-c2ccnc(C(F)(F)F)c2)ncn1CC(=O)Nc1ccc(-c2cnccn2)cn1 [Compound I]

Reference: US20240082244A1, “PHARMACEUTICAL FORMULATION” (Redx Pharma PLC, priority 2021, published 2024)
